According to patent EP0189002B1, “Treatment of gastrointestinal disorders using 5-HT3 antagonists” (SANDOZ AG, priority 1984, dated 1986):

Assays:
[1] = tested on: muscle strips from different parts of the guinea pig stomach; experiment: Test A: field stimulation-induced contractions in guinea pig stomach muscle strips; details: facilitation of field stimulation-induced contractions
Text: The compounds of the invention facilitate field stimulation-induced contractions in muscle strips from different parts of the guinea pig stomach and are therefore indicated to increase decreased peristaltic movements in the stomach and to enhance gastric emptying in vivo. The test is effected as follows:-Male Dunkin-Hartley guinea pigs, 340-450 g, which had been starved overnight, were killed by cervical transsection and the stomach removed and placed in Krebs-Henseleit solution (NaCI 118.0, KCI 4.75, KH2P04 1.2, MgS04 1.2, CaC12 2.5, glucose 10 mM). Segments were taken from the body (approximately 20 mm long, 3-4 mm wide) with dissection in a plane suitable to investigate tension changes in the circular muscle layer. Tissues were placed in 30 ml organ baths containing oxygenated (95% 02, 5% C02) Krebs-Henseleit solution at 37 C. One gram tension was applied to the tissues which were allowed to equilibrate for 45-60 min. before electrical stimulation. […] Responses were measured as changes in gram tension, but to allow easier comparison between treatments, data were converted to show changes as percentage values. The significance of differences between control responses and those obtained in the presence of interacting drugs was assessed using the Mann-Whitney U test.

[2] = Test C: inhibition of 5-hydroxytryptophan (5-HTP) induced increase in gastrointestinal motility (charcoal transit); assay type: in vivo, NMRI mice; details: 30 minutes before 5-HTP 3 mg/kg, mice
Procedure: In a further test the inhibition of the increase in gastrointestinal motility induced by 5-hydroxytryptophan (5-HTP) by the compounds of the invention was observed.
Male NMRI mice (18-32 g in weight) are deprived of food 20 hours before the test. Water is not limited. The animals are separated by a barrier from their straw and access to feces. At the beginning of the test the animals are separated in individual single cages and water is removed.
All animals were treated with the test compound or saline. l.p. administration was used. Injection volume was 0.1 ml/10 g. 30 minutes after pre-treatment 5-HTP or saline was administered. Injection volume 0.1 ml /10 g. Dose 3 mg/kg. At the same time charcoal was administered perorally (10% suspension in water; 0.1 ml/10g). 45 minutes after the start of the experiment the animals were killed. The intestines from the stomach to the rectum were examined. For each animal the transit distance of the front of the charcoal meal along the intestine was measured. The distance was ascertained as a percentage of the whole intestinal length. Groups of at least 3 animals were used.

[3] = biological target: T1, low affinity 5-HT receptors (Cavia porcellus, UniProt O70212); experiment: 5-HT induced contraction of isolated longitudinal muscle of guinea pig ileum, low affinity receptor; details: guinea pig ileum longitudinal muscle strip, 5-HT as agonist
T1 construct: Longitudinal muscle strips, 3-4 cm length, were mounted in a 10 ml organ bath; from tissue; host or cells: guinea pig ileum longitudinal muscle with adhering myenteric plexus
T1 sequence (O70212 20-490): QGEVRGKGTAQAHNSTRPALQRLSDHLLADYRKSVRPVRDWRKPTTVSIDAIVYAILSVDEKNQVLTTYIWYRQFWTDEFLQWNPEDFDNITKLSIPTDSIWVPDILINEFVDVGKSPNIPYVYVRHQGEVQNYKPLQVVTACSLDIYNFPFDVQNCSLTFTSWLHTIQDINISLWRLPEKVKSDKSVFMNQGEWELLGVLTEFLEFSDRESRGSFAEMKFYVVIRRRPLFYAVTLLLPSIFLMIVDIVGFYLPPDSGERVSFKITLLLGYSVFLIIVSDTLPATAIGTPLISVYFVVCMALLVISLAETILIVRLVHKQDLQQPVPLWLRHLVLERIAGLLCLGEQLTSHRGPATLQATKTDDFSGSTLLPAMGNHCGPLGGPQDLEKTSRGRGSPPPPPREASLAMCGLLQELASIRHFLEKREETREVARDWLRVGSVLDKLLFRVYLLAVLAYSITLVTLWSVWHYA
Text: (§1) The isolated longitudinal muscle of the guinea pig ileum with its adhering myenteric plexus is a well established model which permits investigation of the mechanism of action of various neurtransmitters.
(§2) Male guinea pigs (200-400 g) were killed by a blow on the head and exsanguinated. A length of small intestine was removed about 2 cm from the ileo-caecal valve. The mesentery was carefully removed and the ileum was stretched over a glass rod. By stroking tangentially away from the mesenteric attachment with a wad of cotton wool, the longitudinal muscle layer was separated and stripped from the unterlying circular muscle. Longitudinal muscle strips, 3-4 cm length, were mounted in a 10 ml organ bath containing Tyrode solution at 37 ° C and bubbled with 5% carbon dioxide in oxygen. […] Contractions were recorded with an isotonic pendulum lever. […]
(§3) Non-cumulative concentration-response curves for 5-HT were established by adding increasing concentrations of the agonist to the organ bath at intervals of at least 15 min. […] The contractions expressed as percentage of the maximal response to 5-HT obtained from several preparations were plotted as mean values in order to obtain log-concentration-response curves. Inhibition constants were expressed in the form of pA2 values which were graphically determined according to conventional methods (Arunlakshana and Schild, 1959. Mc Kay 1978). […]

[4] = assay type: in vivo, NMRI mice; details: cholera toxin challenged mice
[5] = Test B: gastric emptying in conscious guinea pigs (X-ray passage of spheroids); assay type: in vivo; details: enhancing gastric emptying
Procedure: The compounds of the invention also induce gastric emptying as indicated in standard in vivo tests, e.g. in conscious guinea pigs having stomachs made atonic (i.e. having decreased peristaltic movements) by fasting and wherein the passage of glass spheroids was observed by X-ray techniques. The experiment is effected as follows: • Food was withdrawn for 14 hours before the measurement of gastric emptying. The experiment was conducted under low illumination which minimal noise and disturbance, and was carried out only by those experimentors who had daily contact with the guinea pigs and who carried out the initial training to accustom the guinea pigs to handling. Therefore, animals were subject to minimal stress. […] Gastric emptying was measured as the number of spheroids leaving the stomach.
Six guinea pigs were used at each dose level of drug and responses compared to those of guinea pigs receiving the appropriate vehicle. The significance of differences between drug and control responses was assessed using the Mann Whitney U test.

[6] = tested on: high affinity 5-HT receptor; experiment: 5-HT induced contraction of isolated longitudinal muscle of guinea pig ileum, high affinity receptor; details: guinea pig ileum longitudinal muscle strip, 5-HT as agonist
Text: as §1, §2, §3

dopamine binding sites = details: tritiated haloperidol; cited from earlier work

Structure (SMILES) | ED50 i.p. [2] | pA2 low affinity receptor [3] | pD'2 high affinity receptor [6] | further results
CN1[C@@H]2CC[C@H]1C[C@@H](OC(=O)c1c[nH]c3ccccc13)C2 [Compound E, Indol-3-yl carboxylic acid endo-8-methyl-8-aza-bicyclo[3,2,1]-oct-3-yl ester] | 0.07 mg/kg | pA2 = 7.9 | pD'2 = 5.7 | times more active than metoclopramide [1]: 100 times; effect of an increase in the dose on stomach contents [4]: did not lead to a reduction in the stomach contents; times more active than metoclopramide [5]: about 50 times
CCN(CC)CCNC(=O)c1cc(Cl)c(N)cc1OC [metoclopramide] | – | – | – | IC50 (dopamine binding sites): ~0.17 µM
CN1[C@@H]2CCC[C@H]1C[C@@H](OC(=O)c1csc3ccccc13)C2 [Compound F, Benzo[b]thiophen-3-yl carboxylic acid endo-9-methyl-asa-bicyclo-[3,3,1]non-3-yl ester] | – | pA2 = 9.4 | pD'2 = 5.9 | ED50 ([2]; Mus musculus, i.p.): 0.025 mg/kg
CN1[C@@H]2CCC[C@H]1C[C@@H](OC(=O)c1cn(C)c3ccc(F)cc13)C2 [Compound G, 5-fluoro-1-methyl-indol-3-yl carboxylic acid endo-9-methyl-9-aza-bicyclo[3,3,1]non-3-yl ester] | 0.002 mg/kg | – | – | –
